Assay results taken from ChEMBL document CHEMBL1201862, “PubChem BioAssay data set” (2004).
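How tested: cells in 96-well plates exposed to compound for 48 hours at five concentrations. At the GI50, growth is halved.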 Activity calls are given as the source filed them. No stated cut-off is given here; in the data, active = GI50 up to about 1.1 µM and inactive = higher.

Experiments:
Test in all cases: NCI tumour cell line growth inhibition, 48 h
SF-539 = system: SF-539
SN12C = system: SN12C
OVCAR-3 = system: OVCAR-3
SK-OV-3 = system: SK-OV-3
M14 = system: M14
MDA-MB-435 = system: MDA-MB-435
786-0 = system: 786-0
HCT-116 = system: HCT-116
SNB-19 = system: SNB-19
SK-MEL-28 = system: SK-MEL-28
NCI/ADR-RES = system: NCI/ADR-RES
EKVX = system: EKVX
MDA-MB-231 = system: MDA-MB-231
SW-620 = system: SW-620
T47D = system: T47D
Hs-578T = system: Hs-578T
SNB-75 = system: SNB-75
A549 = system: A549
NCI-H522 = system: NCI-H522
HOP-92 = system: HOP-92

Measured: GI50

CCOC(=O)c1ccc(N(C)Cc2cnc3nc(N)nc(N)c3n2)cc1
inactive: SF-539 8.13 µM | SN12C 40.4 µM | OVCAR-3 14.5 µM | SK-OV-3 18.5 µM | M14 7.83 µM | MDA-MB-435 8.83 µM | 786-0 7.45 µM | HCT-116 3.66 µM | SNB-19 11.6 µM | SK-MEL-28 17.9 µM | NCI/ADR-RES 7.8 µM | EKVX 24.6 µM | MDA-MB-231 21.7 µM | SW-620 6.3 µM | T47D 26.9 µM | Hs-578T 12.7 µM | SNB-75 16.3 µM

O=C(O)/C=C\C(=O)Nn1c(Cc2ccc(Cl)cc2)n[nH]c1=O
inactive: SF-539 > 100 µM | SN12C > 100 µM | OVCAR-3 > 100 µM | A549 > 100 µM | SK-OV-3 > 100 µM | M14 > 100 µM | MDA-MB-435 > 100 µM | 786-0 > 100 µM | NCI-H522 > 100 µM | HCT-116 > 100 µM | NCI/ADR-RES > 100 µM | EKVX > 100 µM | MDA-MB-231 > 100 µM | T47D > 100 µM | Hs-578T > 100 µM

N#Cc1[nH]c(=O)n(-c2ccc(Cl)cc2)c1N
inactive: SF-539 > 10 µM | SN12C > 10 µM | OVCAR-3 > 10 µM | A549 > 10 µM | SK-OV-3 > 10 µM | M14 > 10 µM | MDA-MB-435 > 10 µM | 786-0 > 10 µM | NCI-H522 > 10 µM | HCT-116 > 10 µM | SNB-19 > 10 µM | SK-MEL-28 > 10 µM | NCI/ADR-RES > 10 µM | EKVX > 10 µM | MDA-MB-231 > 10 µM | T47D > 10 µM | Hs-578T > 10 µM

CCOC(=O)c1cnn2c1ncc1c(=O)n(NC(N)=O)ccc12
inactive: SF-539 > 100 µM | SN12C > 100 µM | HOP-92 > 100 µM | OVCAR-3 > 100 µM | A549 > 100 µM | SK-OV-3 > 100 µM | M14 > 100 µM | MDA-MB-435 > 100 µM | 786-0 > 100 µM | NCI-H522 > 100 µM | HCT-116 > 100 µM | SNB-19 > 100 µM | SK-MEL-28 > 100 µM | EKVX > 100 µM | MDA-MB-231 > 100 µM | SW-620 > 100 µM | T47D > 100 µM | Hs-578T > 100 µM | SNB-75 > 100 µM

CCCC(=O)N/S(=N/S(=O)(=O)c1ccc(Cl)cc1)C(Cl)(Cl)Cl (stereo not drawn)
inactive: SF-539 > 100 µM | SN12C > 100 µM | OVCAR-3 > 100 µM | A549 > 100 µM | SK-OV-3 > 100 µM | M14 > 100 µM | MDA-MB-435 > 100 µM | 786-0 > 100 µM | HCT-116 > 100 µM | SNB-19 > 100 µM | SK-MEL-28 > 100 µM | NCI/ADR-RES > 100 µM | EKVX > 100 µM | MDA-MB-231 > 100 µM | SW-620 > 100 µM | T47D > 100 µM | Hs-578T > 100 µM

O=[N+]([O-])c1ccc(/C=N/n2c(S)nnc2CCc2nnc(S)n2/N=C/c2ccc([N+](=O)[O-])o2)o1
inactive: SF-539 41.5 µM | HOP-92 17.2 µM | OVCAR-3 24.6 µM | SK-OV-3 > 100 µM | M14 19.2 µM | MDA-MB-435 17.6 µM | 786-0 17.1 µM | NCI-H522 22.2 µM | HCT-116 15.3 µM | SK-MEL-28 16.6 µM | NCI/ADR-RES 23.8 µM | EKVX > 100 µM | MDA-MB-231 24.7 µM | SW-620 16.7 µM | T47D 23.1 µM | Hs-578T 25.5 µM

O=C(CCc1ccccc1)On1c(-c2ccccc2)nc2ccccc2c1=S
inactive: SF-539 3.92 µM | SN12C 11.9 µM | HOP-92 42.7 µM | OVCAR-3 4.99 µM | A549 3.65 µM | SK-OV-3 6.84 µM | M14 5.57 µM | MDA-MB-435 8.18 µM | 786-0 2.06 µM | HCT-116 2.01 µM | SNB-19 14.8 µM | SK-MEL-28 16.1 µM | NCI/ADR-RES 4.08 µM | EKVX 6.78 µM | MDA-MB-231 51.5 µM | SW-620 8.26 µM | T47D 6.79 µM | Hs-578T 13.1 µM | SNB-75 9.77 µM

CNc1ccc(Cl)cc1S(=O)(=O)c1ccccc1[N+](=O)[O-]
inactive: SF-539 > 100 µM | SN12C > 100 µM | OVCAR-3 > 100 µM | A549 > 100 µM | SK-OV-3 > 100 µM | M14 > 100 µM | 786-0 > 100 µM | NCI-H522 > 100 µM | HCT-116 > 10 µM | SNB-19 > 100 µM | SK-MEL-28 > 100 µM | NCI/ADR-RES > 100 µM | EKVX > 100 µM | MDA-MB-231 > 100 µM | SW-620 > 100 µM | T47D > 100 µM | Hs-578T 31.1 µM | SNB-75 > 100 µM

COc1ccc(-n2cnc3c(NC(C)(C)C(=O)O)ncnc32)cc1
inactive: SN12C > 100 µM | HOP-92 > 100 µM | OVCAR-3 > 100 µM | A549 > 100 µM | SK-OV-3 > 100 µM | M14 > 100 µM | MDA-MB-435 > 100 µM | 786-0 > 100 µM | HCT-116 > 100 µM | SNB-19 > 100 µM | SK-MEL-28 > 100 µM | NCI/ADR-RES > 100 µM | EKVX 84.9 µM | MDA-MB-231 > 100 µM | SW-620 > 100 µM | T47D > 100 µM | Hs-578T > 100 µM | SNB-75 > 100 µM

CCOC(=O)CCC(NC(=O)C(CCC(=O)OCC)NC(=O)C(Cc1ccc([N+](=O)[O-])cc1)NC(C)=O)C(=O)NNC(=O)OC(C)(C)C (stereo not drawn)
inactive: SN12C > 100 µM | HOP-92 > 100 µM | A549 > 100 µM | M14 > 100 µM | 786-0 > 100 µM | HCT-116 > 100 µM | SNB-19 > 100 µM | SK-MEL-28 > 100 µM | EKVX > 100 µM | MDA-MB-231 > 100 µM | SW-620 > 100 µM | T47D 37.3 µM | Hs-578T > 100 µM | SNB-75 > 100 µM

CC(=O)OCC(C)C1=C(OC(C)=O)C(=O)C2(C)C/C=C(/C)CC/C=C(\C)CCC(OC(C)=O)C(C)CCC12 (stereo not drawn)
inactive: SF-539 22.2 µM | SN12C 20.1 µM | HOP-92 7.23 µM | M14 16.6 µM | MDA-MB-435 15.9 µM | 786-0 13.7 µM | HCT-116 16.9 µM | SNB-19 17.3 µM | SK-MEL-28 17.3 µM | MDA-MB-231 14.3 µM | SW-620 19.5 µM | T47D 16.1 µM | Hs-578T 25.4 µM | SNB-75 24.7 µM

CC(=O)N1c2ccccc2C(C)C1c1[nH]c2ccccc2c1C (stereo not drawn)
inactive: SF-539 11 µM | SN12C 17.1 µM | OVCAR-3 19.5 µM | A549 23.4 µM | SK-OV-3 19.7 µM | M14 18.7 µM | MDA-MB-435 18.2 µM | 786-0 19.9 µM | NCI-H522 15.9 µM | HCT-116 16.5 µM | SNB-19 31.6 µM | SK-MEL-28 20.3 µM | NCI/ADR-RES 24.1 µM | EKVX 18.1 µM | MDA-MB-231 18.6 µM | SW-620 27.5 µM | T47D 18.8 µM | Hs-578T 16.6 µM | SNB-75 19.8 µM
